Measurements taken from ChEMBL document CHEMBL6120938, “Covalent small-molecule inhibitors of SARS-CoV-2 Mpro: Insights into their design, classification, biological activity, and binding interactions” (Eur J Med Chem, 2024).
Where a SMILES comes first, the peptide text is derived from it. The star is where a group is joined. Boc = CC(C)(C)OC(=O)*

How the values were obtained:
[1] = Inhibition of SARS-CoV-2 Main protease; parameters: species or system Severe acute respiratory syndrome coronavirus 2
[2] = biological target: T1, Replicase polyprotein 1ab (Severe acute respiratory syndrome coronavirus 2, UniProt P0DTD1); assay: Inhibition of N-terminal 6His-tagged SARS-CoV-2 3CL protease using FAM-SAVLQ as substrate pre-incubated for 15 mins followed by substrate addition and incubated for 30 mins by FRET analysis
[3] = biological target: T1, Replicase polyprotein 1ab; assay: Inhibition of SARS-CoV-2 3CL protease
[4] = biological target: T1, Replicase polyprotein 1ab; assay: Inhibition of SARS-CoV-2 3CL protease by luciferase reporter assay
[5] = Inhibition of MERS-CoV 3CLpro by FRET assay; parameters: species or system Middle East respiratory syndrome-related coronavirus
[6] = biological target: T1, Replicase polyprotein 1ab; assay: Inhibition of SARS-CoV-2 3CL protease using DabcylKTSAVLQSGFRKME-Edans amide as substrate measured for 1 hrs by FRET assay
[7] = Binding affinity to SARS-CoV-2 Main protease assessed as inhibition constant; parameters: species or system Severe acute respiratory syndrome coronavirus 2
SARS-CoV-2 [8] = assay: Antiviral activity against SARS-CoV-2 infected in Vero E6 cells assessed as reduction in viral replication; assay type: functional, organism-based; conditions: Severe acute respiratory syndrome coronavirus 2, Vero C1008
[9] = Inhibition of recombinant SARS-CoV-2 Wuhan-Hu-1 main protease extracted from Escherichia coli cells using Dabcyl-KTSAVLQSGFRKME-Edans as substrate incubated for 60 mins by FRET assay; parameters: species or system Severe acute respiratory syndrome coronavirus 2
[10] = Inhibition of C-terminal GST-tagged SARS-CoV-2 Main protease extracted from Escherichia coli BL21 (DE3) measured for 60 mins by FRET assay; parameters: species or system Severe acute respiratory syndrome coronavirus 2
[11] = Inhibition of SARS-CoV-2 Main protease using DABCYL-KTSAVLQ-SGFRKM-E(EDANS) as substrate pre-treated for 15 mins and measured for 60 mins by FRET assay; parameters: species or system Severe acute respiratory syndrome coronavirus 2
SARS-CoV-2 [12] = assay: Antiviral activity against SARS-CoV-2 infected in African green monkey Vero E6 cells assessed as reduction in viral replication incubated for 72 hrs by RT-qPCR analysis; assay type: functional, organism-based; conditions: Severe acute respiratory syndrome coronavirus 2, Vero C1008, 72 h
[13] = Inhibition of SARS-CoV-2 MPro using Dabcyl-KTSAVLQSGFRKME-Edans as substrate preincubated for 30 mins followed by substrate addition and measured after 60 mins by fluorescence based assay; parameters: species or system Severe acute respiratory syndrome coronavirus 2
SARS-CoV-2 [14] = assay: Antiviral activity against SARS-CoV-2 infected in Vero E6 cells assessed as inhibition of viral replication; assay type: functional, organism-based; conditions: Severe acute respiratory syndrome coronavirus 2, Vero C1008

For `CC(C)C[C@H](NC(=O)OC(c1ccccc1)C1CCC(F)(F)CC1)C(=O)N[C@H](C=O)C[C@H]1CCNC1=O` (some centres undefined), which IC50 [1] is on record?
The IC50 was 130 nM.

Which results are given for `CC(C)C[C@H](NC(=O)OC[C@@H]1C[C@H]1C1CCCCC1)C(=O)N[C@@H](C[C@H]1CCNC1=O)[C@H](O)S(=O)(=O)O`?
IC50 [2]: 170 nM; IC50 [3]: 280 nM

With `CC(C)C[C@H](NC(=O)OC[C@@H]1C[C@H]1c1cccc(Cl)c1)C(=O)N[C@H](C=O)C[C@H]1CCNC1=O` as the compound, how does the IC50 [2] read?
The IC50 was 170 nM.

Which IC50 [4] does the source give for `C=CC(=O)O[C@H](CC)C(=O)NCCc1c[nH]c2ccccc12` here?
Its IC50 is 139000 nM.

Which results are given for `CC(C)C[C@H](NC(=O)OC[C@@H]1C[C@H]1c1cccc(F)c1)C(=O)N[C@@H](CC1CCNC1=O)C(O)S(=O)(=O)O` (some centres undefined)?
IC50 [5]: 70 nM; IC50 [6]: 140 nM

Which Ki [7] does the source give for `CN(C)C(=O)COc1ccc(-c2cccc3[nH]ncc23)cc1C=O` here?
Its Ki is 37 nM.

And the EC50 (SARS-CoV-2 [8])?
Its EC50 is 2500 nM.

For `S=C(S)NCc1cccnc1`, which IC50 [3] is on record?
The IC50 was 30 nM.

With `C=CC(=O)N(c1ccc(C(C)(C)C)cc1)C(C(=O)NC)c1cccnc1` (centres undefined) as the compound, how does the IC50 [1] read?
Its IC50 is 2860 nM.

With `CC(C)(C)OC(=O)NCC(=O)N[C@@H](Cc1ccccc1)C(=O)N[C@H](C=O)Cc1c[nH]cn1` (Boc-Gly-Phe-His-aldehyde) as the compound, how does the IC50 [9] read?
Its IC50 is 6490 nM.

For `CCC1CCC(OC(=O)N[C@@H](CC(C)C)C(=O)N[C@H](C=O)C[C@@H]2CCNC2=O)CC1` (some centres undefined), which IC50 [3] is on record?
The IC50 was 1100 nM.

With `C=CS(=O)(=O)N(c1ccc(C(C)(C)C)cc1)C(C(=O)NCCc1cccc(OC)c1)c1cccnc1` (centres undefined) as the compound, how does the IC50 [3] read?
Its IC50 is 240 nM.

Which IC50 [1] does the source give for `O=C[C@H](C[C@@H]1CCNC1=O)NC(=O)[C@H](CC1CC1)NC(=O)OCc1cccc(F)c1` here?
Its IC50 is 14 nM.

For `CC(C)C[C@H](NC(=O)OC(C)(C)C1CCC(F)(F)CC1)C(=O)N[C@@H](C[C@H]1CCNC1=O)C(O)S(=O)(=O)O` (some centres undefined), which IC50 [1] is on record?
Its IC50 is 125 nM.

Which IC50 [1] does the source give for `COc1cccc2[nH]c(C(=O)N[C@@H](CC(C)C)C(=O)N[C@@H](C[C@@H]3CCNC3=O)C(=O)COP(=O)(O)O)cc12` [LUFOTRELVIR] here?
The IC50 was 9 nM.

For `O=c1c2ccccc2[se]n1-c1cccc2cccnc12`, which IC50 [10] is on record?
Its IC50 is 2600 nM.

For `CCC[C@@H]1C[C@H]1COC(=O)N[C@@H](CC(C)C)C(=O)N[C@@H](C[C@H]1CCNC1=O)[C@@H](O)S(=O)(=O)O`, which IC50 [2] is on record?
Its IC50 is 170 nM.

Which IC50 [1] does the source give for `CCCCCCNC(=O)n1cc(F)c(=O)[nH]c1=O` [CARMOFUR] here?
Its IC50 is 18 nM.

With `CC(C)C[C@H](NC(=O)OCc1cccc(F)c1)C(=O)N[C@H](C=O)C[C@@H]1CCNC1=O` as the compound, how does the IC50 [1] read?
Its IC50 is 130 nM.

For `O=C1c2ccccc2CCC1CNCCc1ccc(O)cc1` (centres undefined), which EC50 (SARS-CoV-2 [8]) is on record?
The EC50 was 24000 nM.

Which IC50 [2] does the source give for `CC(C)C[C@H](NC(=O)OC[C@@H]1C[C@H]1c1ccccc1)C(=O)N[C@H](C=O)C[C@H]1CCNC1=O` here?
Its IC50 is 170 nM.

For `O=Cc1ncc(Br)cc1OCc1ccc2ccccc2c1`, which IC50 [11] is on record?
The IC50 was 26000 nM.

Which IC50 [1] does the source give for `COc1cccc2[nH]c(C(=O)N[C@@H](CC(C)C)C(=O)N[C@H](C=O)C[C@@H]3CCNC3=O)cc12` here?
Its IC50 is 130 nM.

For `CC[C@H](NC[C@H](CS(=O)(=O)CC1CC1)N[C@@H](c1ccc(F)cc1)C(F)(F)F)C(=O)C(=O)NC1CC1`, which EC50 (SARS-CoV-2 [12]) is on record?
The EC50 was 300 nM.

With `COc1ccc([C@@H]2C[C@H]2COC(=O)N[C@@H](CC(C)C)C(=O)N[C@@H](C[C@H]2CCNC2=O)[C@@H](O)S(=O)(=O)O)cc1` as the compound, how does the IC50 [2] read?
Its IC50 is 170 nM.

For `C=CS(=O)(=O)N(c1ccc(C(C)(C)C)cc1)C(C(=O)NCCc1cccc(Cl)c1)c1cccnc1` (centres undefined), which IC50 [3] is on record?
The IC50 was 0.17 nM.

For `CC(C)C[C@H](NC(=O)OC[C@@H]1C[C@H]1c1cccc(F)c1)C(=O)N[C@H](C=O)CC1CCNC1=O` (some centres undefined), which IC50 [5] is on record?
The IC50 was 70 nM.

And the IC50 [6]?
Its IC50 is 140 nM.

Which IC50 [13] does the source give for `O=C(NCc1ccccn1)C(=O)[C@@H](Cc1ccccc1)NC(=O)[C@H]1CCC(=O)N1Cc1ccccc1` here?
The IC50 was 3000 nM.

With `Cc1cc(C(=O)N[C@@H](C)C(=O)N[C@H](C(=O)N[C@@H](CC(C)C)[C@H](/C=C/C(=O)OCc2ccccc2)C[C@@H]2CCNC2=O)C(C)C)no1` as the compound, how does the EC50 (SARS-CoV-2 [8]) read?
Its EC50 is 16800 nM.

With `COc1cc(O)c2c(=O)c(O)c(-c3cc(O)c(O)c(O)c3)oc2c1` as the compound, how does the IC50 [1] read?
Its IC50 is 300 nM.

What about the EC50 (SARS-CoV-2 [14]) of the same compound?
The EC50 was 8000 nM.

With `O=c1c2cccc([N+](=O)[O-])c2[se]n1-c1ccccc1` as the compound, how does the IC50 [10] read?
The IC50 was 740 nM.

Which IC50 [4] does the source give for `C=CC(=O)N(CCC)[C@H](C(=O)NCc1ccc2c(c1)OCO2)c1cccc(O)c1` here?
Its IC50 is 1000 nM.

Which IC50 [1] does the source give for `C=CC(=O)N(c1ccc(C(C)(C)C)cc1)C(C(=O)NCCSC)c1cccnc1` (centres undefined) here?
Its IC50 is 2860 nM.

What does the source list for `COc1ccccc1[C@@H]1C[C@H]1COC(=O)N[C@@H](CC(C)C)C(=O)N[C@@H](CC1CCNC1=O)C(O)S(=O)(=O)O` (some centres undefined)?
IC50 [5]: 70 nM; IC50 [6]: 140 nM
